Results as given in ChEMBL document CHEMBL1154341, “Inhibition of the dimerization and active site of HIV-1 protease by secondary metabolites from the Vietnamese mushroom Ganoderma colossum” (J Nat Prod, 2009).
Activity calls are given as the source filed them. The rule behind the calls is not given here.

Assays:
[1] = target: T1, Protease (Human immunodeficiency virus 1, UniProt Q9YQ12); test: Inhibition of HIV1 protease
[2] = Inhibition of HIV2 protease; set-up: species or system Human immunodeficiency virus 2
[3] = target: Human immunodeficiency virus type 1 integrase (Human immunodeficiency virus 1, UniProt Q7ZJM1); test: Inhibition of HIV1 integrase strand transfer activity
[4] = target: T1, Protease; test: Inhibition of recombinant HIV1 protease after 30 mins by reverse phase HPLC
[5] = target: T1, Protease; test: Competitive inhibition of HIV1 protease by Lineweaver-Burke plot analysis
[6] = target: Protease (Human immunodeficiency virus 1) (UniProt Q9YQ12); test: (§1) Inhibition of HIV1 protease dimerization by Zhang-Poorman kinetic assay
[7] = target: T1, Protease; test: as §1

Question: For `CC(C)c1cc2c(c(O)c1O)[C@@]1(C(=O)O)CCCC(C)(C)[C@@H]1CC2` [CARNOSIC ACID], which IC50 [1] is on record?
Answer: Its IC50 is 0.24 µM.

Question: Which IC50 [1] does the source give for `COc1cc(/C=C/C(=O)CC(=O)/C=C/c2ccc(O)c(OC)c2)ccc1O` [CURCUMIN] here?
Answer: Its IC50 is 100 µM.

Question: And the IC50 [2]?
Answer: Its IC50 is 250 µM.

Question: What about the IC50 [3] of the same molecule?
Answer: The IC50 was 40 µM.

Question: For `CC(C)=CCC/C(C)=C/CC/C(=C/Cc1cc(O)ccc1O)C(=O)O` [GANOMYCIN B], which IC50 [4] is on record?
Answer: Its IC50 is 2.9 µM.

Question: What about the Ki [5] of the same molecule?
Answer: The Ki was 4 µM.

Question: And the inhibition [6]?
Answer: The inhibition was “inactive”.

Question: For `CC(C)=CCC/C(C)=C/CCC1=C[C@@H](c2cc(O)ccc2O)OC1=O` [GANOMYCIN I], which IC50 [4] is on record?
Answer: Its IC50 is 21.9 µM.

Question: For `CC1=CC[C@H]([C@@H](C)[C@H]2CC[C@@]3(C)C4=C(C=C5C=CC(=O)OC(C)(C)[C@@H]5CC4)CC[C@]23C)OC1=O` [SCHISANLACTONE A], which Ki [7] is on record?
Answer: Its Ki is 17.5 µM.
